Read-outs that look alike come from different tables or passages of the source.
How the values were obtained:
SARS-CoV PsV [1] = system: SARS-CoV PsV
HIV-1 6-HB = HIV-1 6-HB (Human immunodeficiency virus type 1, UniProt P04578); assay: Inhibition of HIV-1 6-HB formation (ELISA); format: biochemical; conditions: HIV-1 6-HB formation measured by ELISA
HIV-1 Bal.01 PsV [2] = assay: Sucrose density gradient assay to evaluate viral inactivation; conditions: HIV-1 Bal.01 PsV treated with 50 μM at 37 °C for 2 h
authentic HCoV-OC43 = assay: CPE reduction assay, authentic HCoV-OC43; format: cell-based; conditions: HCoV-OC43 infection, RD cells, CCK-8
cell-free SARS-CoV PsV [3] = system: cell-free SARS-CoV PsV
HIV-1 Bal.01 PsV [4] = assay: HIV-1 PsV inhibition in presence of recombinant unilamellar liposomes; format: cell-based; conditions: compared with the PBS group
[5] = system: authentic IAV H3N2 (A/Victoria/361/2011); format: cell-based, influenza virus
[6] = system: authentic IAV H1N1 (A/California/04/2009); format: cell-based, influenza virus
Huh-7 cells = assay: Cytotoxicity (CCK-8) on Huh-7 cells
LASV = assay: organism not typed; format: cell-based, Lassa fever virus
cell-free SARS-CoV-2 PsV = assay: Inactivation of cell-free SARS-CoV-2 PsV; format: cell-based
Vero E6 cells = format: cell-based
VSV PsV = assay: microbe, parasite or virus in culture; format: cell-based, vesicular stomatitis virus; conditions: read-out: IC50
MERS-CoV PsV [7] = system: MERS-CoV PsV
HPV PsV = format: cell-based, human papilloma virus
NiV = assay: microbe, parasite or virus in culture; format: cell-based, Nipah virus
H7N9 PsV = assay: microbe, parasite or virus in culture; format: cell-based, influenza virus; conditions: read-out: IC50 H7N9
EBOV (Zaire) = assay: microbe, parasite or virus in culture; format: cell-based, Ebola virus
cell-free MERS-CoV PsV [8] = system: cell-free MERS-CoV PsV
SARS-CoV-2 PsV [9] = format: cell-based
[10] = system: authentic ZIKV PRVABC59 (2015/Puerto Rico); assay: microbe, parasite or virus in culture; format: cell-based; conditions: read-out: IC50
hACE2-293T cells = assay: Cytotoxicity (CCK-8) on hACE2-293T cells
authentic EV71 = assay: CPE reduction assay, authentic EV71; format: cell-based, human enterovirus 71 virus; conditions: RD cells
H5N1 PsV = assay: microbe, parasite or virus in culture; format: cell-based, influenza virus; conditions: read-out: IC50 H5N1
EBOV (Sudan) = assay: microbe, parasite or virus in culture; format: cell-based, Ebola virus
[11] = Cytotoxicity (CCK-8) on Huh-7 cells; conditions: human
MERS-CoV PsV [12] = assay: microbe, parasite or virus in culture; conditions: Middle East respiratory syndrome-related coronavirus, Huh-7
cell-free SARS-CoV PsV [13] = assay: microbe, parasite or virus in culture; conditions: Severe acute respiratory syndrome coronavirus
[14] = system: pseudotyped SARS-CoV-2 Omicron (B.1.1.529); assay: microbe, parasite or virus in culture; format: cell-based; conditions: Severe acute respiratory syndrome coronavirus 2, Caco-2
SARS-CoV-2 PsV [15] = assay: microbe, parasite or virus in culture; format: cell-based; conditions: Severe acute respiratory syndrome coronavirus 2
[16] = system: authentic SARS-CoV-2 WT (nCoV-SH01); assay: microbe, parasite or virus in culture; format: cell-based; conditions: Severe acute respiratory syndrome coronavirus 2, Vero C1008
[17] = system: pseudotyped SARS-CoV-2 Alpha (B.1.1.7); assay: microbe, parasite or virus in culture; format: cell-based; conditions: Severe acute respiratory syndrome coronavirus 2, Caco-2
[18] = system: pseudotyped SARS-CoV-2 Gamma (P.1); assay: microbe, parasite or virus in culture; format: cell-based; conditions: Severe acute respiratory syndrome coronavirus 2, Caco-2
SARS-CoV PsV [19] = assay: microbe, parasite or virus in culture; conditions: Severe acute respiratory syndrome coronavirus
in vitro = conditions: dog
[20] = Cytotoxicity (CCK-8) on hACE2-293T cells; conditions: human
cell-free MERS-CoV PsV [21] = assay: microbe, parasite or virus in culture; conditions: Middle East respiratory syndrome-related coronavirus, Huh-7
[22] = system: pseudotyped SARS-CoV-2 Beta (B.1.351); assay: microbe, parasite or virus in culture; format: cell-based; conditions: Severe acute respiratory syndrome coronavirus 2, Caco-2
[23] = Severe acute respiratory syndrome coronavirus 2

Chain of HIV-1 6-HB (P04578 536-581, added parts left off): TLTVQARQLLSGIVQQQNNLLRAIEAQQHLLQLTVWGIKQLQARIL
Chain of HIV-1 6-HB (P04578 536-581, added parts left off): as above

O=C(O)c1cc(-c2ccc(C=C3SC(=S)N(CCc4ccccc4)C3=O)o2)ccc1Cl [FD001, furanyl methylidene rhodanine]
IC50 (SARS-CoV PsV [1]): 0.18 ± 0.02 µM | SI CC50/IC50 (SARS-CoV PsV [1]): 160.22 | IC50 (HIV-1 6-HB): 17.4 µM | integrity of the viral membrane (band distribution of p24) (HIV-1 Bal.01 PsV [2]): did not disrupt the integrity of the viral membrane | IC50 (authentic HCoV-OC43): 0.48 µM | EC50 (cell-free SARS-CoV PsV [3]): 1.58 ± 0.21 µM | SI CC50/EC50 (cell-free SARS-CoV PsV [3]): 18.25 | antiviral activity, liposomes added to HIV-1 PsV pretreated with compound (HIV-1 Bal.01 PsV [4]): good antiviral activity | inhibitory activity against HIV-1 PsV, compound pretreated with liposomes (HIV-1 Bal.01 PsV [4]): no different from that of the PBS group | inhibition of authentic IAV H3N2 infection [5]: inhibited | inhibition of authentic IAV H1N1 infection [6]: inhibited | CC50 (Huh-7 cells): 42.6 ± 1.31 µM | IC50 (LASV): 0.44 ± 0.1 µM | EC50 (cell-free SARS-CoV-2 PsV): 0.67 µM | fluorescence intensity of treated cells (binding to cells) (Vero E6 cells): positively correlated with compound concentration | IC50 (VSV PsV): 0.02 µM | CC50 (MDCK cells): > 50 µM | IC50 (MERS-CoV PsV [7]): 0.29 ± 0.03 µM | SI CC50/IC50 (MERS-CoV PsV [7]): 147.07 | inhibition of infection of nonenveloped HPV PsV (HPV PsV): could not inhibit | IC50 (NiV): 0.41 ± 0.07 µM | IC50 (H7N9 PsV): 0.85 ± 0.21 µM | IC50 (EBOV (Zaire)): 1.04 ± 0.11 µM | EC50 (cell-free MERS-CoV PsV [8]): 1.12 ± 0.16 µM | SI CC50/EC50 (cell-free MERS-CoV PsV [8]): 38.08 | inhibition of SARS-CoV-2 PsV infection after unbound compound washed from cells (SARS-CoV-2 PsV [9]): not effective in inhibiting viral infection after washing | IC50 [10]: 4.36 µM | CC50 (hACE2-293T cells): 28.8 ± 1.24 µM | inhibition of infection of authentic EV71 (authentic EV71): could not inhibit | IC50 (H5N1 PsV): 0.26 ± 0.03 µM | IC50 (EBOV (Sudan)): 0.39 ± 0.04 µM

C#CCOc1ccc(CCN2C(=O)/C(=C/c3ccc(-c4ccc(Cl)c(C(=O)O)c4)o3)SC2=S)cc1 [FD007]
SI CC50/IC50 (SARS-CoV PsV [1]): 301.00 | SI CC50/EC50 (cell-free SARS-CoV PsV [3]): 21.50 | CC50 at 48 h [11]: > 50 µM | IC50 (MERS-CoV PsV [12]): 0.2 ± 0.03 µM | EC50 (cell-free SARS-CoV PsV [13]): 1.54 ± 0.14 µM | IC50 [14]: 3.09 µM | IC50 (SARS-CoV-2 PsV [15]): 0.32 µM | EC50 (cell-free SARS-CoV-2 PsV; [23]): 0.96 µM | IC50 [16]: 0.17 µM | IC50 [17]: 0.29 µM | IC50 [18]: 0.53 µM | SI CC50/IC50 (MERS-CoV PsV [7]): >250 | IC50 (SARS-CoV PsV [19]): 0.11 ± 0.01 µM | IC50 (H7N9 PsV; Influenza A virus, H7N9, MDCK): 2.13 ± 0.2 µM | SI CC50/EC50 (cell-free MERS-CoV PsV [8]): >56.18 | CC50 (in vitro): > 50 µM | CC50 at 48 h [20]: 33.1 ± 1.02 µM | EC50 (cell-free MERS-CoV PsV [21]): 0.89 ± 0.09 µM | IC50 [22]: 0.81 µM | IC50 (H5N1 PsV; Influenza A virus, H5N1, MDCK): 0.47 ± 0.11 µM

C#CCOCCOc1ccc(CCN2C(=O)/C(=C/c3ccc(-c4ccc(Cl)c(C(=O)O)c4)o3)SC2=S)cc1 [FD008]
SI CC50/IC50 (SARS-CoV PsV [1]): 468.80 | SI CC50/EC50 (cell-free SARS-CoV PsV [3]): 123.37 | CC50 at 48 h [11]: 38.9 ± 1.22 µM | IC50 (MERS-CoV PsV [12]): 0.31 ± 0.02 µM | EC50 (cell-free SARS-CoV PsV [13]): 0.19 ± 0.02 µM | IC50 [14]: 0.74 µM | IC50 (SARS-CoV-2 PsV [15]): 0.46 µM | EC50 (cell-free SARS-CoV-2 PsV; [23]): 0.41 µM | IC50 [16]: 0.05 µM | IC50 [17]: 0.34 µM | IC50 [18]: 0.69 µM | SI CC50/IC50 (MERS-CoV PsV [7]): 125.48 | IC50 (SARS-CoV PsV [19]): 0.05 ± 0.01 µM | IC50 (H7N9 PsV; Influenza A virus, H7N9, MDCK): 2.51 ± 0.33 µM | SI CC50/EC50 (cell-free MERS-CoV PsV [8]): 56.38 | CC50 (in vitro): > 50 µM | CC50 at 48 h [20]: 23.4 ± 0.78 µM | EC50 (cell-free MERS-CoV PsV [21]): 0.69 ± 0.13 µM | IC50 [22]: 0.42 µM | IC50 (H5N1 PsV; Influenza A virus, H5N1, MDCK): 0.51 ± 0.14 µM

CCOc1ccc(CCN2C(=O)/C(=C/c3ccc(-c4ccc(Cl)c(C(=O)O)c4)o3)SC2=S)cc1 [FD009]
SI CC50/EC50 (cell-free SARS-CoV PsV [3]): 144.75 | CC50 at 48 h [11]: 27.5 ± 1.43 µM | IC50 (MERS-CoV PsV [12]): 0.28 ± 0.02 µM | EC50 (cell-free SARS-CoV PsV [13]): 0.12 ± 0.01 µM | IC50 [14]: 0.58 µM | IC50 (SARS-CoV-2 PsV [15]): 0.05 µM | EC50 (cell-free SARS-CoV-2 PsV; [23]): 0.16 µM | IC50 [16]: 0.03 µM | IC50 [17]: 0.55 µM | IC50 [18]: 0.47 µM | SI CC50/IC50 (MERS-CoV PsV [7]): 98.36 | IC50 (SARS-CoV PsV [19]): 0.03 ± 0.01 µM | IC50 (H7N9 PsV; Influenza A virus, H7N9, MDCK): 1.41 ± 0.27 µM | SI CC50/EC50 (cell-free MERS-CoV PsV [8]): 94.97 | inhibition of SARS-CoV-2 PsV infection after unbound compound washed from cells (SARS-CoV-2 PsV [9]): not effective in inhibiting viral infection after washing | CC50 (in vitro): > 50 µM | CC50 at 48 h [20]: 17.4 ± 0.64 µM | EC50 (cell-free MERS-CoV PsV [21]): 0.29 ± 0.02 µM | IC50 [22]: 0.24 µM | IC50 (H5N1 PsV; Influenza A virus, H5N1, MDCK): 0.15 ± 0.04 µM

— article PMC8954792 (Viruses, 2022)
